Experimental findings from patent US10640534B2 (Agios Pharmaceuticals, Inc., priority 2012, dated 2020) are described below.

Structures are written as SMILES.

For this test, the system named is U87MG cells. Briefly: Cellular assay, inhibition of 2-HG production in U87MG cells. The class given is cell-based. To be noted: Homo sapiens, U-87 MG, 48 h. Put shortly:
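HT1080 or U87MG cells (U87MG kept with 500 ug/mL G418) seeded at 5000 cells/well and treated with compound at 0.2% final DMSO. Incubated 48 h at 37 °C. 2-HG inhibition determined by LC-MS. Viability read by CellTiter-Glo luminescence at 72 h post-dose.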

In general, IC50 refers to the midpoint of a concentration-inhibition curve. Low readings indicate greater potency in that assay, high ones weaker potency in that assay.

Take `N#Cc1cc(F)cc(N(C(=O)[C@@H]2C[C@@H](O)C(=O)N2c2cc(C#N)ccn2)C(C(=O)NC2CC(F)(F)C2)c2ccccc2Cl)c1` (stereo partly drawn) [Compound 169, (2S,4R)—N-(1-(2-Chlorophenyl)-2-(3,3-difluorocyclobutylamino)-2-oxoethyl)-N-(3-cyano-5-fluorophenyl)-1-(4-cyanopyridin-2-yl)-4-hydroxy-5-oxopyrrolidine-2-carboxamide]: the IC50 was less than 100 nM.

Compound `N#Cc1ccnc(N2C(=O)CC[C@H]2C(=O)N(c2cccc(F)c2)[C@H](C(=O)NC2CC(F)(F)C2)c2ccccc2Cl)c1` [Compound 37] had an IC50 of less than 100 nM.

On to `O=C(NC1CC(F)(F)C1)[C@H](c1ccccc1Cl)N(C(=O)[C@@H]1CCC(=O)N1c1ccc(F)cn1)c1cccc(F)c1` [Compound 29], for which the IC50 was less than 100 nM.

The compound `N#Cc1ccnc(N2C(=O)OCC[C@H]2C(=O)N(c2cccc(F)c2)C(C(=O)NC2CC(F)(F)C2)c2ccccc2Cl)c1` (stereo partly drawn) [Compound 90, (4S)—N-(1-(2-Chlorophenyl)-2-(3,3-difluorocyclobutylamino)-2-oxoethyl)-3-(4-cyanopyridin-2-yl)-N-(3-fluorophenyl)-2-oxo-1,3-oxazinane-4-carboxamide] showed an IC50 of less than 100 nM.

On to `CCOC(=O)CN1C[C@@H](C(=O)N(c2cccc(F)c2)C(C(=O)NC2CC(F)(F)C2)c2ccccc2Cl)N(c2cc(C#N)ccn2)C1=O` (stereo partly drawn) [Compound 94, Ethyl 2-((4S)-4-((1-(2-chlorophenyl)-2-((3,3-difluorocyclobutyl)amino)-2-oxoethyl)(3-fluorophenyl)carbamoyl)-3-(4-cyanopyridin-2-yl)-2-oxoimidazolidin-1-yl)acetate], for which the IC50 was less than 100 nM.

Take `Cn1ccc2cc(N(C(=O)[C@@H]3CCC(=O)N3c3cc(C#N)ccn3)[C@H](C(=O)NC3CC(F)(F)C3)c3ccccc3Cl)ccc21` [Compound 209, (S)—N—((S)-1-(2-Chlorophenyl)-2-((3,3-difluorocyclobutyl)amino)-2-oxoethyl)-1-(4-cyanopyridin-2-yl)-N-(1-methyl-1H-indol-5-yl)-5-oxopyrrolidine-2-carboxamide]: the IC50 was less than 100 nM.

Compound `N#Cc1ccnc(N2C(=O)CC[C@H]2C(=O)N(c2cccc(F)c2)[C@H](C(=O)NC2CCC(F)(F)CC2)c2ccccc2Cl)c1F` [Compound 83, (S)—N—((S)-1-(2-Chlorophenyl)-2-((4,4-difluorocyclohexyl)amino)-2-oxoethyl)-1-(4-cyano-3-fluoropyridin-2-yl)-N-(3-fluorophenyl)-5-oxopyrrolidine-2-carboxamide] returned an IC50 of less than 100 nM.

Compound `O=C(NC1CC(F)(F)C1)[C@H](c1ccccc1Cl)N(C(=O)[C@@H]1CCC(=O)N1c1nccs1)c1cccc(F)c1` [Compound 14] displayed a 50% inhibitory concentration (IC50) of 100 to 500 nM.

`N#Cc1ccnc(N2C(=O)N(CCO)C[C@H]2C(=O)N(c2cccc(F)c2)C(C(=O)NC2CC(F)(F)C2)c2ccccc2Cl)c1` (stereo partly drawn) [Compound 112, (4S)—N-(1-(2-Chlorophenyl)-2-(3,3-difluorocyclobutyl-amino)-2-oxoethyl)-3-(4-cyanopyridin-2-yl)-N-(3-fluorophenyl)-1-(2-hydroxyeth-yl)-2-oxoimidazolidine-4-carboxamide] gave an IC50 of less than 100 nM.

As for `CS(=O)(=O)c1cc(F)cc(N(C(=O)[C@@H]2CCC(=O)N2c2nccc(C#N)n2)C(C(=O)NC2CCC(F)(F)CC2)c2ccccc2Cl)c1` (stereo partly drawn) [Compound 108, (2S)—N-(1-(2-Chlorophenyl)-2-((4,4-difluorocyclohexyl)amino)-2-oxoethyl)-1-(4-cyanopyrimidin-2-yl)-N-(3-fluoro-5-(methylsulfonyl)phenyl)-5-oxopyrrolidine-2-carboxamide], the IC50 is less than 100 nM.

Regarding `N#Cc1ccnc(N2C(=O)CC[C@H]2C(=O)N(c2cccc3[nH]ncc23)C(C(=O)NC2CC(F)(F)C2)c2ccccc2Cl)c1` (stereo partly drawn) [Compound 152, (2S)—N-(1-(2-Chlorophenyl)-2-((3,3-difluorocyclobutyl)amino)-2-oxoethyl)-1-(4-cyanopyridin-2-yl)-N-(1H-indazol-4-yl)-5-oxopyrrolidine-2-carboxamide], the IC50 is less than 100 nM.

In the case of `N#Cc1ccnc(N2C(=O)CC[C@H]2C(=O)N(c2cccc(F)c2F)[C@H](C(=O)NC2CC(F)(F)C2)c2ccccc2Cl)c1` [Compound 188, (S)—N—((S)-1-(2-Chlorophenyl)-2-((3,3-difluorocyclobutyl)amino)-2-oxoethyl)-1-(4-cyanopyridin-2-yl)-N-(2,3-difluorophenyl)-5-oxopyrrolidine-2-carboxamide], the IC50 was less than 100 nM.

As for `O=C(NC1CC(F)(F)C1)[C@H](c1ccccc1Cl)N(C(=O)[C@@H]1CCC(=O)N1c1cscn1)c1cccc(F)c1` [Compound 43, (S)—N—((S)-1-(2-Chlorophenyl)-2-(3,3-difluorocyclobutylamino)-2-oxoethyl)-N-(3-fluorophenyl)-5-oxo-1-(thiazol-4-yl)pyrrolidine-2-carboxamide], the half-inhibitory concentration (IC50) is less than 100 nM.

For `O=C(NC1CC(F)(F)C1)C(c1ccccc1Cl)N(C(=O)[C@@H]1CCC(=O)N1c1ccccn1)c1cccc(F)c1` (some centres unmarked) [Compound 5], the IC50 lay in the range of 100 to 500 nM.

For the compound `N#Cc1ccnc(N2C(=O)CC[C@H]2C(=O)N(c2cc(F)cc(F)c2)[C@H](C(=O)NC2CC(F)(F)C2)c2ccc(Cl)cc2Cl)c1` [Compound 196, (S)-1-(4-Cyanopyridin-2-yl)-N—((S)-1-(2,4-dichlorophenyl)-2-((3,3-difluorocyclobutyl)-amino)-2-oxoethyl)-N-(3,5-difluorophenyl)-5-oxopyrrolidine-2-carboxamide], the IC50 is less than 100 nM.

`N#Cc1ccnc(N2C(=O)[C@@H](O)C[C@H]2C(=O)N(c2cccc(F)c2)[C@H](C(=O)NC2CC(F)(F)C2)c2ccccc2Cl)c1` [Compound 118, (2S,4S)—N—((S)-1-(2-Chlorophenyl)-2-(3,3-difluorocyclobutylamino)-2-oxoethyl)-1-(4-cyano-pyridin-2-yl)-N-(3-fluorophenyl)-4-hydroxy-5-oxopyrrolidine-2-carboxamide] had an IC50 of less than 100 nM.

`N#Cc1ccnc(N2C(=O)[C@@H](O)C[C@H]2C(=O)N(c2cccc(F)c2)[C@H](C(=O)NC2CCC(F)(F)CC2)c2ccccc2Cl)c1` [Compound 172, (2S,4S)—N—((S)-1-(2-Chlorophenyl)-2-((4,4-difluorocyclohexyl)amino)-2-oxoethyl)-1-(4-cyano-pyridin-2-yl)-N-(3-fluorophenyl)-4-hydroxy-5-oxopyrrolidine-2-carboxamide] returned an IC50 of less than 100 nM.

The compound `N#Cc1ccnc(N2C(=O)CC[C@H]2C(=O)N(c2cc(F)cc(F)c2)[C@H](C(=O)NC2CC(F)(F)C2)c2ncccc2Cl)c1` [Compound 198, (S)—N—((S)-1-(3-Chloropyridin-2-yl)-2-(3,3-difluorocyclobutylamino)-2-oxoethyl)-1-(4-cyanopyridin-2-yl)-N-(3,5-difluorophenyl)-5-oxopyrrolidine-2-carboxamide] returned a half-inhibitory concentration (IC50) of less than 100 nM.

The compound `CS(=O)(=O)c1cccc(N(C(=O)[C@@H]2CCC(=O)N2c2cc(C#N)ccn2)C(C(=O)NC2CC(F)(F)C2)c2ccccc2Cl)c1` (stereo partly drawn) [Compound 96, (2S)—N-(1-(2-Chlorophenyl)-2-((3,3-difluorocyclobutyl)amino)-2-oxoethyl)-1-(4-cyanopyridin-2-yl)-N-(3-(methylsulfonyl)phenyl)-5-oxopyrrolidine-2-carboxamide] registered an IC50 of less than 100 nM.

Compound `N#Cc1ccnc(N2C(=O)CC[C@H]2C(=O)N(c2cc(F)cc(F)c2)[C@H](C(=O)NC2CC(F)(F)C2)c2cc(Cl)ccc2Cl)c1` [Compound 201, (S)-1-(4-Cyanopyridin-2-yl)-N—((S)-1-(2,5-dichlorophenyl)-2-((3,3-difluorocyclobutyl)-amino)-2-oxoethyl)-N-(3,5-difluorophenyl)-5-oxopyrrolidine-2-carboxamide] displayed an IC50 of less than 100 nM.

In turn, `N#Cc1ccc(N2C(=O)CC[C@H]2C(=O)N(c2cccc(F)c2)[C@H](C(=O)NC2CC(F)(F)C2)c2ccccc2Cl)nc1` [Compound 47] returned an IC50 of 100 to 500 nM.

The compound `O=C(NC1CCC(F)(F)CC1)[C@H](c1ccccc1Cl)N(C(=O)[C@@H]1CCC(=O)N1c1cnccn1)c1cccc(F)c1` [Compound 58, (S)—N—((S)-1-(2-Chlorophenyl)-2-(4,4-difluorocyclohexylamino)-2-oxoethyl)-N-(3-fluorophenyl)-5-oxo-1-(pyrazin-2-yl)pyrrolidine-2-carboxamide] gave an IC50 of less than 100 nM.

For the compound `C[S@+]([O-])c1cc(F)cc(N(C(=O)[C@@H]2CCC(=O)N2c2cc(C#N)ccn2)[C@H](C(=O)NC2CC(F)(F)C2)c2ccccc2Cl)c1` [Compound 190, (S)—N—((S)-1-(2-Chlorophenyl)-2-(3,3-difluorocyclobutylamino)-2-oxoethyl)-1-(4-cyanopyridin-2-yl)-N-(3-fluoro-5-((S)-methylsulfinyl)phenyl)-5-oxopyrrolidine-2-carboxamide], the IC50 was less than 100 nM.

Take `N#Cc1ccnc(N2C(=O)CC[C@H]2C(=O)N(c2cc(F)cc(F)c2)C(C(=O)NC2CC(F)(F)C2)c2cccc(Cl)c2Cl)c1` (stereo partly drawn) [Compound 195, (2S)-1-(4-Cyanopyridin-2-yl)-N-(1-(2,3-dichlorophenyl)-2-(3,3-difluoro-cyclobutylamino)-2-oxoethyl)-N-(3,5-difluorophenyl)-5-oxopyrrolidine-2-carboxamide]: the IC50 was less than 100 nM.

`N#Cc1ccnc(N2C(=O)CC[C@H]2C(=O)N(c2cncc(F)c2)[C@H](C(=O)NC2CC(F)(F)C2)c2ccccc2Cl)c1` [Compound 176, (S)—N—((S)-1-(2-Chlorophenyl)-2-(3,3-difluorocyclobutylamino)-2-oxoethyl)-1-(4-cyanopyridin-2-yl)-N-(5-fluoropyridin-3-yl)-5-oxopyrrolidine-2-carboxamide] registered an IC50 of less than 100 nM.

Compound `N#Cc1ccnc(N2C(=O)CN(CCO)C[C@H]2C(=O)N(c2cc(F)cc(F)c2)[C@H](C(=O)NC2CC(F)(F)C2)c2ccccc2Cl)c1` [Compound 107, (S)—N—((S)-1-(2-chlorophenyl)-2-((3,3-difluorocyclobutyl)amino)-2-oxoethyl)-1-(4-cyanopyridin-2-yl)-N-(3,5-difluorophenyl)-4-(2-hydroxyethyl)-6-oxopiperazine-2-carboxamide] displayed an IC50 of less than 100 nM.
